Laboratory results as given in US6969590B2, “Use of a polypeptide for treatment of pruritus in animals” (Zengen, Inc., priority 2001, dated 2005).

Tests used:
[1] = system: carrageenan-induced swelling in rat paws; assay: Rat paw edema test; type: in vivo, Sprague-Dawley rats
Method: A second in vivo bioassay for anti-inflammatory activity was conducted in which the action of the tripeptide was compared to that of hydrocortisone. In this assay, the two agents were given at similar doses and tested for their independent ability to inhibit carrageenan-induced swelling in rat paws. This assay, the rat paw edema test, was conducted generally as it is typically performed in the art, for example, as described by Winter et al. (1962), Proc. Soc. Exp. Biol. Med., 111:544 or in U.S. Pat. No. 4,150,137. Briefly, the assay was performed as follows. Each of twenty-four male Sprague-Dawley rats was assigned to one of four groups: Tripeptide treatment and controls (matched according to body weight and initial paw volume), hydrocortisone treatment and matched controls. The volume of the right rear paw of the test and control animals was determined using standard procedures and a mercury displacement volumetric technique. […] One hour later 0.5 ml of 1% lambda carrageenan in saline solution was injected into the right rear paw of the animals and the paw volume was again recorded (baseline measure). For comparison of the effects of the two treatments, paw volume of experimental animals measured at hourly intervals was expressed as a percentage of the volume change of their respective matched controls.

[2] = system: inflammation induced in the ear by picryl chloride; assay: Picryl chloride-induced ear swelling; type: in vivo, BALB/C mice
Method: Female BALB/C mice (Simmons Laboratories), 7 weeks old, were housed at 23-25° C. in groups of no more than 5 per cage [28 cm (L)×18 cm (W)×13 cm (H)]. They were allowed to acclimatize to standard lighting and temperature conditions for at least 1 week, with food and water available ad lib, before the experiment began. Five to ten animals were randomly assigned to each treatment group each test day, and all experiments were repeated at least twice to confirm reproducibility. To reduce error due to slight differences in responses to the irritant of animals from different shipments, tests of each agent were performed as separate experiments in which experimental and control animals were drawn from the same shipment.
In the experiments each animal was anesthetized with 1 mg of pentobarbital sodium solution (50 mg/kg, Nembutal, Abbott Laboratories, Abbott park, Ill.). Baseline ear thickness was measured for both ears with a spring-loaded micrometer (Swiss Precision Instruments, Los Angeles, Calif.). Ear thickness was expressed in units of 10^−3 cm; the average thickness of unstimulated ears was approximately 25-30×10^−3 cm. After baseline measurements were taken, one of six solutions was injected IP. Control animals received 0.2 ml of sterile saline, and experimental animals received Ac-α-MSH (11-13)-NH2, i.e., Ac-Lys-Pro-Val-NH2), Ac[D-Lys^11] α-MSH (11-13)-NH2, Ac[D-Pro^12] α-MSH (11-13)-NH2, Ac[D-Val^13] α-MSH (11-13)-NH2 or Ac-[D-Lys^11, D-Val^13] α-MSH (11-13)-NH2 in the same volume of saline. […] The doses of the tripeptides were 10 μg ([…]), 20 μg ([…]), 40 μg (1.04×10^−7 M), and 80 μg (2.08×10^−7 M). Immediately after saline or α-MSH injection, a micropipette was used to coat both sides of each ear with 10 μl (40 μl per mouse) of a 0.5% picryl chloride (Polysciences, Warrington, Pa.) solution in acetone.
Ear thickness was remeasured 3 and 6 h after picryl chloride application. Swelling was determined by subtracting baseline thickness from the measurements for each ear at 3 and 6 h. The differences for both ears were then averaged for the final analysis.
Repeated-measure ANOVA techniques were used to determine if there was an overall difference among group data for each peptide tested in separate experiments. In those cases in which the ANOVA yielded significant results, Dunnett's test was then used to compare the effects of peptide doses with control (saline) data for each of the two time periods, 3 and 6 h.

[3] = system: inflammation induced in the hind paw; assay: Kappa carrageenan-induced hind paw inflammation, spinal cord intact or transected; type: in vivo, BALB/c mice; conditions: given intraperitoneally, spinal cord transection
Method: Because surgical dissection of trigeminal structures that innervate the ear of the mouse is very difficult, tests to learn whether descending neural pathways are essential to the anti-inflammatory activity of centrally administered α-MSH peptides were performed in mice with inflammation induced in a hind paw. In these experiments, each animal was anesthetized with pentobarbital sodium solution as above. Baseline footpad thickness of both hind paws was measured with a spring-loaded micrometer (Swiss Precision Instruments, Los Angeles, Calif.). Paw thickness was expressed in units of 10^−3 cm; average thickness of unstimulated paws was 171.5×10^−3 cm across shipments of animals. Kappa carrageenan (Sigma) dissolved in saline (0.05%, 20 μl) was injected (28 gauge allergy test syringe) into one footpad, and saline (20 μl) was injected into the other. For the analyses, the increase in thickness of the control saline-injected paw of each animal was subtracted from that of the carrageenan-injected paw, to eliminate the influence of mechanical injury and volume of the injected fluid. To be certain that mice with severed spinal cords can react to anti-inflammatory agents, prednisolone (2.5 mg/mouse (IP injection)) was administered to 10 mice with spinal transection and inflammation induced by carrageenan. Treatment with the locally acting steroid reduced swelling up to 29% (average, relative to saline controls) at 4.5 h. after carrageenan.
However, a standardized crushing of lumbar vertebrae with a hemostat was effective in severing the cord; no deaths were caused by this treatment. […] The experiments were limited to 4.5 h to reduce problems of bowel and bladder dysfunction. Immediately after the 4.5 h measurements all mice were killed with an overdose of sodium pentobarbital.
Because of the size of the experiments and the requirement for several shipments of animals over time, several experiments were performed, each with complete treatment and control groups drawn from the same shipment of mice. Omnibus analysis of variance techniques (Dynastat, Washington, D.C.) were used to test overall differences among group means. Tukey's protected t test was used to compare individual means. Probability values of <0.05 were considered significant.

[4] = system: histamine-induced blue weal formation; assay: Sparrow/Wilhelm assay: histamine-induced blue wheals; type: in vivo, New Zealand white rabbits; conditions: for relative intensity of blue wheals, experimental vs control: scored 30 minutes after histamine
Excerpt: This model relies on the principal that localized, subcutaneous injections of histamine will result in a localized increase in capillary permeability. When the test animal has been pretreated with blue dye intravenously, the localized histamine injections will elicit blue-colored wheals around the injection site. Thus, by pre-administration of an effective anti-inflammatory agent the blue color of the histamine-induced wheals will be much less pronounced, with the amount of color reduction being dependent on the relative amount and/or potency of the anti-inflammatory agent used.
Non-molting New Zealand white rabbits were used for the Sparrow/Wilhelm assay. The skin of the rabbits back was closely clipped 1-2 days previous to the experiment, but not depilated, and the rabbits were kept warm until tested. Various amounts of the protected tripeptide Ac-Lys-Pro-Val-NH2 were injected intravenously into an ear vein approximately 15 minutes prior to intravenous injection of blue dye. Control rabbits received sham injections. Fifteen minutes following injection of the agent or sham, the rabbits received approximately 30 mg/kg of Pontamine blue dye as a 2.5% solution in 0.45% saline, into an exposed vein. Immediately following dye injections, histamine was injected intradermally in a 0.10 ml volume (1.25 mg histamine 0.1 ml volume) at several sites on each side of the spine. In all, one vertical row of six injections were made on each side of the spine. The relative intensity of the resultant blue wheals were scored by an independent observer 30 minutes after histamine injection.

[5] = system: NO2^−; assay: Nitrite (NO) production by activated N9 microglia; type: cell-based, murine; conditions: microglia stimulated with LPS+IFN-γ for 24 hr, micromolar concentrations
Method: (§1) The N9 clone of murine microglial cells was obtained by immortalization of embryonic brain cultures with the 3RV retrovirus carrying an activated v-myconcogene. N9 cells were cultured in T-75-cm^2 culture flasks (Corning, Cambridge, Mass.) and maintained at 37° C. in a humidified incubator under 5% CO2 atmosphere in RPMI 1640 supplemented with 2 mM L-glutamine, 50 U/mL penicillin G, 50 μg/mL streptomycin sulfate (GIBCO-BBL, Paisley, UK), and 10% heat-inactivated fetal bovine serum (FBS, Hyclone Lab, Inc., Logan, Utah) until experiments were performed. Cells were used between the first and the tenth passage.
(§2) Sub-confluent microglial cells were washed twice with phosphate-buffered saline (PBS) and incubated with trypsin 0.025% and ethylenediaminetetraacetate (EDTA) 0.02% without calcium and magnesium for 3 min. at 37° C. to detach the cells from the culture flask. Cells were then resuspended in medium and incubated in 24-well tissue-culture plates at a concentration of 2×10^5 cells/mL for 16 h in a humidified incubator (37° C., 5% CO2). Growth medium was removed and cell monolayers were stimulated with 10 ng/mL lipopolysaccharide (LPS, from Escherichia coli 055:B5, Sigma Chemical Co., St. Louis, Mo.) plus 1 U/ml, murine IFN-γ (Sigma). To test effects of melanocortin peptides, concentrations (1, 10, 25, 50 and 100 μM) of α-MSH (1-13), α-MSH (11-13), and ACTH (1-24) (Sigma) were dissolved in medium and added to wells 10 min before treatment with LPS+IFN-γ. […] Viability of cells was assessed by trypan blue exclusion for each experimental condition; it was consistently >98%. […]
NO is rapidly oxidized to nitrite (NO2) in culture medium, and nitrite concentration is an indicator of NO production. […] Samples were incubated at room temperature for 10 min and absorbency was measured at 540 nm with the use of a microplate reader. Nitrite concentrations were calculated using a sodium nitrite standard curve.
(§3) Effects of melanocortin peptides on cytokine and NO production were evaluated by repeated measures analysis of variance followed by Dunnet's test for specific comparisons. […]

[6] = system: TNF-α and iNOS mRNA; assay: Northern blot of TNF-α and iNOS mRNA in activated microglia; type: cell-based, murine
Method: Total cellular RNA was extracted from 10^6 adherent microglial cells plated in six-well tissue culture plates (Corning). Electrophoresis of RNA samples (10 μg/lane) was performed in 1% agarose/2.2 M formaldehyde gels and the gels subsequently blotted onto nylon filters by capillary action and baked for 2 h before prehybridization. The cDNA fragments encoding murine TNF-α and mouse macrophage iNOS were ^32P-labeled using the Ready-To-Go DNA Labeling Kit (Pharmacia, Uppsala, Sweden) before hybridization of nylon filters and autoradiography. Blots were subsequently rehybridized with human glyceraldehyde-3-phosphate dehydrogenase (G-3-PDH) cDNA probe as an internal control (Clontech Laboratories, Inc., Palo Alto, Calif.).

[7] = system: TNF-α; assay: TNF-α production by activated N9 microglia; type: cell-based, murine; conditions: microglia stimulated with LPS+IFN-γ for 24 hr, micromolar concentrations
Method: as §1, §2
(§4) TNF-α bioactivity was measured in supernatants of cell cultures by standard cytotoxicity assay using L929 cells and recombinant human TNF-α (Sigma) as standard. […] IL-6 was measured using a commercial murine enzyme-linked immunosorbent assay (ELISA: RPN 2714, Amersham, Little Chalfont, UK).
as §3

[8] = system: IL-6; assay: IL-6 production by activated N9 microglia; type: cell-based, murine; conditions: microglia stimulated with LPS+IFN-γ for 24 hr, micromolar concentrations
Method: as §1, §2, §4, §3

C[C@]12CCC(=O)C=C1CC[C@@H]1[C@@H]2[C@@H](O)C[C@@]2(C)[C@H]1CC[C@]2(O)C(=O)CO [hydrocortisone, reference compound]
inhibition of paw swelling in the first hour ([1]; 100 mg/kg intraperitoneal, first hour): markedly inhibited swelling

Ac-Lys-Pro-Val-NH2 [Ac-α-MSH(11-13)-NH2, protected tripeptide]
inhibition of paw edema compared with hydrocortisone ([1]; 100 mg/kg intraperitoneal each, hourly, after the first hour): no significant difference in the inhibition of paw edema | % Inhibition of swelling ([2]; 10 μg IP, 3 h): 26% | % Inhibition of swelling ([2]; 10 μg IP, 6 h): 25% | % Inhibition of swelling ([2]; 20 μg IP, 3 h): 21% | % Inhibition of swelling ([2]; 20 μg IP, 6 h): 19% | % Inhibition of swelling ([2]; 40 μg IP, 3 h): 33% | % Inhibition of swelling ([2]; 40 μg IP, 6 h): 26% | % Inhibition of swelling ([2]; 80 μg IP, 3 h): 50% | % Inhibition of swelling ([2]; 80 μg IP, 6 h): 42% | overall effect on ear inflammation (ANOVA) ([2]; 10-80 μg IP, 3 and 6 h): inhibited acute inflammation | anti-inflammatory effect after spinal cord transection [3]: marked inhibitory effect on inflammation | relative intensity of blue wheals, experimental vs control ([4]; 0.625 ug/kg intravenously): No difference | relative intensity of blue wheals, experimental vs control ([4]; 1.25 ug/kg intravenously): E lighter than C | relative intensity of blue wheals, experimental vs control ([4]; 5 ug/kg intravenously): E lighter than C | relative intensity of blue wheals, experimental vs control ([4]; 10 ug/kg intravenously): E lighter than C | lowest intravenous dose with appreciable reduction in blue weal formation ([4]; intravenous): 1.25 ug tripeptide per kg body weight

ACTH (1-24): melanocortin peptide ACTH (1-24) (SYSMEHFRWGKPVGKKRRPVKVYP; Corticotropin; UniProt P01189 138-161, looked up, fragment) [reference compound]
reduction of production of NO2^− [5]: 41% | mRNA for TNF-α and iNOS (Northern blot) [6]: inhibition of mRNA transaction for TNF-α and iNOS | reduction of production of TNF-α [7]: 38% | reduction of production of IL-6 [8]: 65%
